Reference: PubChem BioAssay AID248 (DTP/NCI, 2004)
Where “and” joins values, the source holds several entries; their conditions need not be identical. Identical values can stand only once. Toxic doses and inconclusive results are not listed. Rule as the data show it: active = T/C of 150% or more; inactive = T/C below 125%.

Test system: L1210 leukemia ip in BDF1 mice, survival T/C
Experiment: NCI In Vivo Anticancer Drug Screen. Data for tumor model L1210 Leukemia (intraperitoneal) in B6D2F1 (BDF1) mice
Details: endpoint: mean survival time, higher = longer survival
Method in brief: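 Mice bearing the transplanted tumor received compound or vehicle. Survival of the treated group was divided by that of the vehicle-treated control group to give the ratio.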

[1] = dose: 25.0 mg/kg/injection, schedule: Q01DX009 (ip), vehicle: saline
[2] = dose: 50.0 mg/kg/injection, schedule: Q01DX009 (ip), vehicle: saline
[3] = dose: 100.0 mg/kg/injection, schedule: Q01DX009 (ip), vehicle: saline
[4] = dose: 12.5 mg/kg/injection, schedule: Q04DX003 (ip), vehicle: saline
[5] = dose: 25.0 mg/kg/injection, schedule: Q04DX003 (ip), vehicle: saline
[6] = dose: 100.0 mg/kg/injection, schedule: Q01DX001 (ip), vehicle: saline
[7] = dose: 200.0 mg/kg/injection, schedule: Q01DX001 (ip), vehicle: saline
[8] = dose: 6.25 mg/kg/injection, schedule: Q01DX009 (ip), vehicle: saline with Tween-80
[9] = dose: 100.0 mg/kg/injection, schedule: Q04DX003 (ip), vehicle: saline with Tween-80
[10] = dose: 200.0 mg/kg/injection, schedule: Q04DX003 (ip), vehicle: saline with Tween-80
[11] = dose: 50.0 mg/kg/injection, schedule: Q01DX009 (ip), vehicle: saline with Tween-80
[12] = dose: 100.0 mg/kg/injection, schedule: Q01DX009 (ip), vehicle: saline with Tween-80

Measured: T/C

O=C1c2cc([N+](=O)[O-])ccc2-c2cccc(F)c21
inactive: dose: 100.0 mg/kg/injection, schedule: Q04DX003 (ip), vehicle: acetone 102 % of control | dose: 200.0 mg/kg/injection, schedule: Q04DX003 (ip), vehicle: acetone 94 % of control | dose: 400.0 mg/kg/injection, schedule: Q04DX003 (ip), vehicle: acetone 109 % of control

C[n+]1ccn(CC(=O)c2ccccc2)c1
inactive: [1] 98 % of control | [2] 112 % of control | [3] 93 % of control

CN1CC(COC(=O)Cc2c[nH]c3ccccc23)C=C2c3cccc4[nH]cc(c34)CC21 (centres undefined)
inactive: dose: 25.0 mg/kg/injection, schedule: Q04DX003 (ip), vehicle: alcohol 98 % of control | dose: 50.0 mg/kg/injection, schedule: Q04DX003 (ip), vehicle: alcohol 96 % of control | dose: 100.0 mg/kg/injection, schedule: Q04DX003 (ip), vehicle: alcohol 102 % of control | dose: 200.0 mg/kg/injection, schedule: Q04DX003 (ip), vehicle: alcohol 96 % of control | dose: 400.0 mg/kg/injection, schedule: Q04DX003 (ip), vehicle: alcohol 96 % of control

CCCCCc1ccc(/C(C)=N/NC(=O)c2ccc[n+](C)c2)cc1
inactive: dose: 6.25 mg/kg/injection, schedule: Q04DX003 (ip), vehicle: saline 101 % of control | [4] 95 % of control | dose: 25.0 mg/kg/injection, schedule: Q04DX003 (ip), vehicle: saline with Tween-80 98 % of control | [5] 95 % of control

Clc1ccc(CSC2=NCCN2)cc1
inactive: [4] 94 % of control | [5] 93 % of control | dose: 50.0 mg/kg/injection, schedule: Q04DX003 (ip), vehicle: saline 98 % of control

O=C(Nc1ccccc1)C(Cl)(Cl)Cl
inactive: dose: 50.0 mg/kg/injection, schedule: Q01DX001 (ip), vehicle: other 104 % of control | dose: 100.0 mg/kg/injection, schedule: Q01DX001 (ip), vehicle: other 102 % of control | dose: 100.0 mg/kg/injection, schedule: Q04DX002 (ip), vehicle: Klucel (hydroxypropylcellulose) (HPC) 106 % of control | dose: 200.0 mg/kg/injection, schedule: Q01DX001 (ip), vehicle: other 102 % of control | dose: 200.0 mg/kg/injection, schedule: Q04DX002 (ip), vehicle: Klucel (hydroxypropylcellulose) (HPC) 92 % of control | dose: 400.0 mg/kg/injection, schedule: Q01DX001 (ip), vehicle: other 104 % of control | dose: 400.0 mg/kg/injection, schedule: Q04DX002 (ip), vehicle: Klucel (hydroxypropylcellulose) (HPC) 89 % of control

SCc1ccccc1
inactive: [6] 91 % of control | [7] 111 % of control | dose: 400.0 mg/kg/injection, schedule: Q01DX001 (ip), vehicle: saline 105 % of control

Cc1ccc(Sc2cccc3c(C)c4cccc5c4c(c23)C[S+]5c2ccc(C)cc2)cc1 (centres undefined)
inactive: dose: 1.56 mg/kg/injection, schedule: Q01DX009 (ip), vehicle: saline with Tween-80 103 % of control | dose: 3.13 mg/kg/injection, schedule: Q01DX009 (ip), vehicle: saline with Tween-80 101 % of control | [8] 103 % of control

CN(C/C=C/CN(C)P(=O)(N1CC1)N1CC1)P(=O)(N1CC1)N1CC1
inactive: dose: 6.25 mg/kg/injection, schedule: Q01DX009 (ip), vehicle: saline 107 % of control

COC(=O)C(C#N)Cc1ccccc1Cl (centres undefined)
inactive: [9] 90 % of control | [10] 96 % of control | dose: 400.0 mg/kg/injection, schedule: Q04DX003 (ip), vehicle: saline with Tween-80 98 % of control

CC(=O)OC1CCC2(C)C(=CCC3C2CCC2(C)C3CCC2(O)C(C)=O)C1 (centres undefined)
inactive: dose: 100.0 mg/kg/injection, schedule: Q01DX001 (ip), vehicle: Klucel (hydroxypropylcellulose) (HPC) 101 % of control | dose: 200.0 mg/kg/injection, schedule: Q01DX001 (ip), vehicle: Klucel (hydroxypropylcellulose) (HPC) 97 % of control | dose: 400.0 mg/kg/injection, schedule: Q01DX001 (ip), vehicle: Klucel (hydroxypropylcellulose) (HPC) 98 % of control

O=[As](O)(O)c1ccccc1N=Nc1ccccc1
inactive: dose: 75.0 mg/kg/injection, schedule: Q01DX009 (ip), vehicle: Klucel (hydroxypropylcellulose) (HPC) 100 % of control | dose: 150.0 mg/kg/injection, schedule: Q01DX009 (ip), vehicle: Klucel (hydroxypropylcellulose) (HPC) 87 % of control | dose: 300.0 mg/kg/injection, schedule: Q01DX009 (ip), vehicle: Klucel (hydroxypropylcellulose) (HPC) 108 % of control

Oc1ccc(Nc2cc(/C=C/c3ccc(Cl)cc3)nc(/C=C/c3ccc(Cl)cc3)n2)cc1CN1CCCC1
inactive: dose: 50.0 mg/kg/injection, schedule: Q01DX001 (ip), vehicle: saline 89 % of control | dose: 50.0 mg/kg/injection, schedule: Q04DX003 (ip), vehicle: Klucel (hydroxypropylcellulose) (HPC) 104 % of control | [6] 93 % of control | dose: 100.0 mg/kg/injection, schedule: Q04DX003 (ip), vehicle: Klucel (hydroxypropylcellulose) (HPC) 95 % of control | [7] 91 % of control | dose: 200.0 mg/kg/injection, schedule: Q04DX003 (ip), vehicle: Klucel (hydroxypropylcellulose) (HPC) 98 % of control

CCN(CC)C(C)CNc1cc(C)nc(/N=C(\N)Nc2ccc(Cl)c(Cl)c2)n1 (centres undefined)
inactive: dose: 2.35 mg/kg/injection, schedule: Q01DX009 (ip), vehicle: Klucel (hydroxypropylcellulose) (HPC) 110 % of control | dose: 4.69 mg/kg/injection, schedule: Q01DX009 (ip), vehicle: Klucel (hydroxypropylcellulose) (HPC) 100 % of control | dose: 9.38 mg/kg/injection, schedule: Q01DX009 (ip), vehicle: Klucel (hydroxypropylcellulose) (HPC) 98 % of control and 100 % of control | dose: 37.5 mg/kg/injection, schedule: Q01DX009 (ip), vehicle: Klucel (hydroxypropylcellulose) (HPC) 100 % of control | dose: 75.0 mg/kg/injection, schedule: Q01DX001 (ip), vehicle: other 97 % of control

CNCCOc1ccccc1
inactive: [11] 105 % of control | [12] 101 % of control | [9] 107 % of control | [10] 93 % of control

O=C(O)c1cccc(CBr)c1CBr
inactive: dose: 6.25 mg/kg/injection, schedule: Q01DX001 (ip), vehicle: saline with Tween-80 97 % of control | [8] 93 % of control | dose: 12.5 mg/kg/injection, schedule: Q01DX001 (ip), vehicle: saline with Tween-80 96 % of control | dose: 12.5 mg/kg/injection, schedule: Q01DX009 (ip), vehicle: saline with Tween-80 96 % of control | dose: 25.0 mg/kg/injection, schedule: Q01DX001 (ip), vehicle: saline with Tween-80 100 % of control

CCCCCCNC(C)=O
inactive: dose: 12.5 mg/kg/injection, schedule: Q01DX009 (ip), vehicle: saline 92 % of control | [1] 118 % of control | [2] 97 % of control and 90 % of control | [3] 90 % of control | [9] 95 % of control | dose: 200.0 mg/kg/injection, schedule: Q01DX009 (ip), vehicle: saline 97 % of control | [10] 87 % of control

O=C(NC1C=CCCC1)c1ccccc1 (centres undefined)
inactive: [11] 102 % of control | [12] 96 % of control | dose: 200.0 mg/kg/injection, schedule: Q01DX009 (ip), vehicle: saline with Tween-80 96 % of control

CC(C)(CSCCSCC(C)(C)C(=O)O)C(=O)O
inactive: dose: 100.0 mg/kg/injection, schedule: Q01DX009 (ip), vehicle: Klucel (hydroxypropylcellulose) (HPC) 94 % of control | dose: 200.0 mg/kg/injection, schedule: Q01DX009 (ip), vehicle: Klucel (hydroxypropylcellulose) (HPC) 94 % of control | dose: 400.0 mg/kg/injection, schedule: Q01DX009 (ip), vehicle: Klucel (hydroxypropylcellulose) (HPC) 91 % of control
